What was measured:
blood coagulation = test: Blood coagulation tests (CA-1000), Example 1 A; parameters: species or system human; conditions: mean of four normal samples
Source text: Blood was collected into test tubes containing the anticoagulant (CTAD) prepared as above and subjected to blood cell count tests (leukocyte count (WBC), ratios of leukocytic components (neutrophil ratio (NEUT%), lymphocyte ratio (LYMPH%), monocyte ratio (MONO%), eosinophil ratio (EOSI%) and basophil ratio (BASO%)), erythrocyte count (RBC), hemoglobin concentration (Hgb), hematocrit (Hct), MCV, MCH, MCHC and platelet count (PLT))(used counter: SE-9000™ produced by Sysmex Corporation, Japan) and coagulation tests (prothrombin time (PT), activated partial thromboplastin time (APTT), fibrinogen determination (Fbg))(used tester:CA-1000 produced by Sysmex Corporation, Japan).
EDTA-2K (Venoject II™ or 5 ml produced by Terumo), 5 mg, was used as a control for the blood cell count tests and a 3.8% solution of sodium citrate (3.8% solution of sodium citrate for 5 ml produced by Terumo, Japan), 0.5 ml, was used as a control for the blood coagulation tests, respectively, in place of the above anticoagulant.
The tests were conducted with four normal samples, and mean values are calculated.

platelets [1] = test: Examination on EDTA-dependant pseudothrombocytopenia (platelet counting); type: cell-based, human; conditions: FIG. 1
Procedure: Blood samples to which CTAD of the present invention or EDTA-2K was added were subjected to the platelet counting in order to compare them with regard to the EDTA-dependant Pseudothrombocytopenia.

platelets [2] = test: Examination on cold agglutination (platelet counting after cold storage); type: cell-based, human
Procedure: Blood samples to which CTAD of the present invention or EDTA-2K was added were subjected to the platelet counting in order to compare them with regard to cold agglutination (the pseudothrombocytopenia in cold storage). […]

platelets [3] = test: Change with time in the mean platelet volume (MPV); type: cell-based, human; conditions: FIG. 2
Procedure: Blood samples to which CTAD of the present invention or EDTA-2K was added were compared with regard to change with time in the size of platelets.

SMILES	APTT (activated partial thromboplastin time) (blood coagulation) [s]	Fbg (fibrinogen determination) (blood coagulation) [s]	PT (prothrombin time) (blood coagulation) [s]	change with time in the number of platelets (platelets [1])	decrease of platelets in cold storage (platelets [2]; 4° C., eight hours after collected)	PLT (platelet count) (platelets [2]; 37° C. (control))	PLT (platelet count) (platelets [2]; preserved at 4° C., examined eight hours after collected)	change with time in the size of platelets (mean platelet volume) (platelets [3])
O=C([O-])CC(O)(CC(=O)[O-])C(=O)[O-].[Na+].[Na+].[Na+] [sodium citrate]	28.6	9.8	9.5					
O=C([O-])CN(CCN(CC(=O)O)CC(=O)O)CC(=O)[O-].[K+].[K+] [EDTA-2K]				decreased with time	Platelets decreased	17.6 ×10^4	9.0 ×10^4	grew in size with time
